Like-named read-outs stand apart in the source and are kept apart here. Blank lines part the entries; values can stand above or below the molecule they belong to. Non-standard residues stand in square brackets, D forms with d. Residues, ends and D or L forms follow the SMILES beside them. *: point of attachment. Phe(F5) = N[C@@H](Cc1c(F)c(F)c(F)c(F)c1F)C(=O)O; Phe(4-Cl) = N[C@@H](Cc1ccc(Cl)cc1)C(=O)O; hArg = N=C(N)NCCCC[C@H](N)C(=O)O; 12Ado = NCCCCCCCCCCCC(=O)O; Nle = CCCC[C@H](N)C(=O)O; Orn = NCCC[C@H](N)C(=O)O; Abu = CC[C@H](N)C(=O)O; PhAc = O=C(Cc1ccccc1)*
Experiments:
[1] = test system: KATOIII stomach cancer cells; experiment: In vitro cell viability, KATOIII; type: cell-based, human; settings: antagonist 5 μM for 72 h, cell proliferation assay; MIA602 = 1
Protocol: (§1) The inhibitory effects of the various synthesized GHRH antagonists were tested in cell proliferation assays in various human cancer cell lines including stomach cancer (KATOIII, N87), colon cancer (HT-29), urothelial cancer (J82, RT4), pancreatic cancer (PANC-1, CFPAC-1), prostatic cancer (PC3), breast cancer (MX-1, HCC1806), ovarian cancer (SK-OV-3, OVCAR-3) and lung cancer (HCC827, H460).
(§2) Cell culture. Human cancer cell lines including pancreatic (PANC-1 and CFPAC-1), lung (HCC827 and H460), stomach (NCI-N87 and KATOIII), urothelial (J82, RT4), prostatic (PC3), breast (MX-1 and HCC 1806), colorectal (HT-29), and ovarian (SK-OV-3 and OVCAR-3) were obtained from the American Type Culture Collection (ATCC) and cultured at 37° C. in a humidified 95% air/5% CO2 atmosphere in the medium recommended by ATCC.
(§3) In vitro cell viability. Cell viability was analyzed as follows: cancer cells including pancreatic (PANC-1 and CFPAC-1), lung (HCC827 and H460), stomach (NCI-N87 and KATOIII), urothelial (J82, RT4), prostatic (PC3) and breast (MX-1 and HCC 1806), colorectal (HT-29) and ovarian (SK-OV-3 and OVCAR-3) were grown on 96 well plates to ˜60% confluence, the cells were starved for 24 h in culture medium containing 0.5% FBS. Cells were then treated with GHRH antagonists MIA602 AVR compounds at concentrations of 1, 2.5 or 5 μM, or vehicle (0.1% DMSO) in quintuplicates for 72 hours. The medium was replaced every 48 hours. Cell viability was measured using CellTiter 96 aqueous one solution kit (Promega). Inhibitory effects of tested AVR compounds in comparison to that of MIA602 are presented as inhibitory potency.
(§4) Inhibitory effects of selected AVR compounds in comparison to that of MIA602 are presented as inhibitory potency (e.g., percentage of inhibition). […] The cell lines tested including lung cancer HCC827 (FIG. 2A), pancreatic cancer CFPAC-1 (FIG. 2B), stomach cancer N87 (FIG. 2C), colon cancer HT-29 (FIG. 2D), breast cancers MX-1 and HCC1806 (FIGS. 2 E, F). Based on the results of cell proliferation assay after cancer cells were treated with antagonist at concentration of 5 μM for 72H, the relative inhibitory potency of AVR antagonists in comparison to MIA-602 is summarized in Table 3 A and B. Over 60 AVR compounds were tested in 12 cancer cell lines.

MX-1 breast cancer cells = experiment: In vitro cell viability, MX-1; type: cell-based, human; settings: antagonist 5 μM for 72 h, cell proliferation assay; MIA602 = 1
Protocol: as §1, §2, §3, §4
(§5) Based on the results of cell proliferation assay after cancer cells were treated with antagonist at concentration of 5 µM for 72H, * at concentration of 2 µM for 72 H.

[2] = test system: PC3 prostatic cancer cells; experiment: In vitro cell viability, PC3; type: cell-based, human; settings: antagonist 5 μM for 72 h, cell proliferation assay; MIA602 = 1
Protocol: as §1, §2, §3
(§6) Inhibitory effects of selected AVR compounds in comparison to that of MIA602 are presented as inhibitory potency (e.g., percentage of inhibition). […] The cell lines tested including lung cancer HCC827 (FIG. 2A), pancreatic cancer CFPAC-1 (FIG. 2B), stomach cancer N87 (FIG. 2C), colon cancer HT-29 (FIG. 2D), breast cancers MX-1 and HCC1806 (FIGS. 2 E, F). […]

[3] = test system: CFPAC-1 pancreatic cancer cells; experiment: In vitro cell viability, CFPAC-1; type: cell-based, human; settings: antagonist 5 μM for 72 h, cell proliferation assay; MIA602 = 1
Protocol: as §1, §2, §3, §4, §5

[4] = test system: PANC-1 pancreatic cancer cells; experiment: In vitro cell viability, PANC-1; type: cell-based, human; settings: antagonist 5 μM for 72 h, cell proliferation assay; MIA602 = 1
Protocol: as §1, §2, §3, §4

[5] = test system: HCC1806 breast cancer cells; experiment: In vitro cell viability, HCC1806; type: cell-based, human; settings: antagonist 5 μM for 72 h, cell proliferation assay; MIA602 = 1
Protocol: as §1, §2, §3, §4, §5

[6] = target: T1, membrane GHRH-receptors on human anterior pituitary cells (Homo sapiens, UniProt Q02643); experiment: Receptor binding, displacement of 125I-[His1,Nle27]-hGH-RH(1-32)NH2 on human pituitary membranes
T1 construct: Human pituitary was purchased from the National Hormone and Peptide Program; tissue National Hormone and Peptide Program; host or cells: human pituitary (membrane fractions)
T1 sequence (Q02643 23-423): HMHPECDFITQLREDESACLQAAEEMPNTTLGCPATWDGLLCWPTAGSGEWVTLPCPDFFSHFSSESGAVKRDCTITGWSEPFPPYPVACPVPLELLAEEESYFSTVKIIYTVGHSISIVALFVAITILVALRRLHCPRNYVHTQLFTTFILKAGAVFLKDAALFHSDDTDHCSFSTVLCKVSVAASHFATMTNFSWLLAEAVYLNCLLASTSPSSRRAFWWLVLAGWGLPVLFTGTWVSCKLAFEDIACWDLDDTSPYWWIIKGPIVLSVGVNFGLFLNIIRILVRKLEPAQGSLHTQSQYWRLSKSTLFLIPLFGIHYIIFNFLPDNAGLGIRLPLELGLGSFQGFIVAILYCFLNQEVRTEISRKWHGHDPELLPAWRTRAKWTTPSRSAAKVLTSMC
Protocol: Receptor binding affinities in vitro. Preparation of human pituitary membrane fractions and receptor binding of analogs of GH-RH were performed (Halmos G, Rekasi Z, Szoke B, Schally A V. (1993) Receptor 3:87-97). Human pituitary was purchased from the National Hormone and Peptide Program. […] Relative affinities compared to hGH-RH(1-29)NH2 were calculated as the ratio of IC50 (dose causing 50% inhibition of specific binding to receptors) of the tested peptides to the IC50 of hGH-RH(1-29)NH2. The values were calculated from technical duplicate tubes.
Nineteen new AVR analogs of GHRH were tested in the receptor binding assay. Table 6 presents the IC50 values of GHRH antagonists to membrane GHRH-receptors binding on human anterior pituitary cells.

HCC827 lung cancer cells = experiment: In vitro cell viability, HCC827; type: cell-based, human; settings: antagonist 5 μM for 72 h, cell proliferation assay; MIA602 = 1
Protocol: as §1, §2, §3, §4, §5

[7] = test system: J82 urothelial cancer cells; experiment: In vitro cell viability, J82; type: cell-based, human; settings: antagonist 5 μM for 72 h, cell proliferation assay; MIA602 = 1
Protocol: as §1, §2, §3, §4

[8] = test system: NCI-N87 stomach cancer cells; experiment: In vitro cell viability (CellTiter 96), N87; type: cell-based, human; settings: antagonist 5 μM for 72 h, cell proliferation assay; MIA602 = 1
Protocol: as §1, §2, §3, §4, §5

[9] = test system: RT4 urothelial cancer cells; experiment: In vitro cell viability, RT4; type: cell-based, human; settings: antagonist 5 μM for 72 h, cell proliferation assay; MIA602 = 1
Protocol: as §1, §2, §3, §6

SMILES: CCCC[C@H](NC(=O)[C@@H](NC(=O)[C@H](CC(=O)O)NC(=O)[C@H](CCC(N)=O)NC(=O)[C@H](CC(C)C)NC(=O)[C@H](CC(C)C)NC(=O)[C@H](CCCCN)NC(=O)[C@H](CCCNC(=N)N)NC(=O)[C@H](C)NC(=O)[C@H](CO)NC(=O)[C@H](CC(C)C)NC(=O)[C@H](CCC(N)=O)NC(=O)[C@H](CC)NC(=O)[C@H](CC(C)C)NC(=O)[C@@H](NC(=O)[C@H](CCCCN)NC(=O)[C@H](CCCNC(=N)N)NC(=O)[C@H](Cc1ccc(O)cc1)NC(=O)[C@H](CCCNC(=N)N)NC(=O)[C@H](C)NC(=O)[C@@H](NC(=O)[C@H](Cc1ccc(Cl)cc1)NC(=O)[C@@H](NC(=O)[C@H](C)NC(=O)[C@H](CC(=O)O)NC(=O)[C@@H](CCCNC(=N)N)NC(=O)[C@H](Cc1ccc(O)cc1)NC(=O)CCCCCCCCCCCNC(=O)Cc1ccccc1)[C@@H](C)CC)[C@@H](C)O)C(C)C)[C@@H](C)CC)C(=O)N[C@H](CCCNC(=N)N)C(=O)N[C@@H](CCCCNC(=N)N)C(N)=O [AVR-107, PhAC-Ada-Tyr-DArg-Asp-Ala-Ile-Cpa-Thr-Ala-Arg-Tyr-Arg-Lys-Val-Leu-Abu-Gln-Leu-Ser-Ala-Arg-Lys-Leu-Leu-Gln-Asp-Ile-Nle-DArg-Har-NH2] ({PhAc-12Ado}-Y[dR]DAI[Phe(4-Cl)]TARYRKVL[Abu]QLSARKLLQDI[Nle][dR][hArg]-NH2)
- relative inhibitory potency in comparison to MIA-602, Stomach KATOIII [1]: 1.295
- relative inhibitory potency in comparison to MIA-602, Breast MX-1 (MX-1 breast cancer cells): 1.010
- relative inhibitory potency in comparison to MIA-602, Prostatic PC3 [2]: 0.800
- relative inhibitory potency in comparison to MIA-602, Pancreatic CFPAC-1 [3]: 1.080
- relative inhibitory potency in comparison to MIA-602, Pancreatic Panc-1 [4]: 1.160
- relative inhibitory potency in comparison to MIA-602, Breast IICC1806 [5]: 0.950
- IC50 [6]: 0.61 nM

SMILES: CCCC[C@H](NC(=O)[C@@H](NC(=O)[C@H](CC(=O)O)NC(=O)[C@H](CCC(N)=O)NC(=O)[C@H](CC(C)C)NC(=O)[C@H](CC(C)C)NC(=O)[C@H](CCCN)NC(=O)[C@H](Cc1c[nH]cn1)NC(=O)[C@H](C)NC(=O)[C@H](CO)NC(=O)[C@H](CC(C)C)NC(=O)[C@H](CCC(N)=O)NC(=O)[C@H](CC)NC(=O)[C@H](CC(C)C)NC(=O)[C@@H](NC(=O)[C@H](CCCCN)NC(=O)[C@H](CCCNC(=N)N)NC(=O)[C@H](Cc1c(F)c(F)c(F)c(F)c1F)NC(=O)[C@H](CCCNC(=N)N)NC(=O)[C@H](C)NC(=O)[C@@H](NC(=O)[C@H](Cc1ccc(Cl)cc1)NC(=O)[C@@H](NC(=O)[C@H](C)NC(=O)[C@H](CC(=O)O)NC(=O)[C@@H](CCCNC(=N)N)NC(=O)[C@H](Cc1ccc(O)cc1)NC(=O)CCCCCCCCCCCNC(=O)Cc1ccccc1)[C@@H](C)CC)[C@@H](C)O)C(C)C)[C@@H](C)CC)C(=O)N[C@H](CCCNC(=N)N)C(=O)N[C@@H](CCCCNC(=N)N)C(N)=O [AVR-116, PhAC-Ada-Tyr-DArg-Asp-Ala-Ile-Cpa-Thr-Ala-Arg-5FPhe-Arg-Lys-Val-Leu-Abu-Gln-Leu-Ser-Ala-His-Orn-Leu-Leu-Gln-Asp-Ile-Nle-DArg-Har-NH2] ({PhAc-12Ado}-Y[dR]DAI[Phe(4-Cl)]TAR[Phe(F5)]RKVL[Abu]QLSAH[Orn]LLQDI[Nle][dR][hArg]-NH2)
- relative inhibitory potency in comparison to MIA-602, Stomach KATOIII [1]: 1.202
- relative inhibitory potency in comparison to MIA-602, Pancreatic CFPAC-1 [3]: 1.445
- relative inhibitory potency in comparison to MIA-602, Pancreatic Panc-1 [4]: 1.208
- relative inhibitory potency in comparison to MIA-602, Lung IICC827 (HCC827 lung cancer cells): 2.470
- IC50 [6]: 0.5 nM
- relative inhibitory potency in comparison to MIA-602, Urothelial J82 [7]: 3.034
- relative inhibitory potency in comparison to MIA-602, Stomach N87 [8]: 2.484

- IC50 ([6]; membrane receptors on human anterior pituitary cells, mean of two to three determinations, read-out: IC50): 0.48 nM
SMILES: CCCC[C@H](NC(=O)[C@@H](NC(=O)[C@H](CC(=O)O)NC(=O)[C@H](CCC(N)=O)NC(=O)[C@H](CC(C)C)NC(=O)[C@H](CC(C)C)NC(=O)[C@H](CCCN)NC(=O)[C@H](Cc1c[nH]cn1)NC(=O)[C@H](C)NC(=O)[C@H](CO)NC(=O)[C@H](CC(C)C)NC(=O)[C@H](CCC(N)=O)NC(=O)[C@H](CC)NC(=O)[C@H](CC(C)C)NC(=O)[C@@H](NC(=O)[C@H](CCCCN)NC(=O)[C@H](CCCNC(=N)N)NC(=O)[C@H](Cc1ccc(OC)cc1)NC(=O)[C@H](CCCNC(=N)N)NC(=O)[C@H](C)NC(=O)[C@@H](NC(=O)[C@H](Cc1ccc(Cl)cc1)NC(=O)[C@@H](NC(=O)[C@H](C)NC(=O)[C@H](CC(=O)O)NC(=O)[C@@H](CCCNC(=N)N)NC(=O)[C@H](Cc1ccc(O)cc1)NC(=O)CCCCCCCCCCCNC(=O)[C@H](N)Cc1ccccc1)[C@@H](C)CC)[C@@H](C)O)C(C)C)[C@@H](C)CC)C(=O)N[C@H](CCCNC(=N)N)C(=O)N[C@@H](CCCCNC(=N)N)C(N)=O [AVR-120, D-Phe-Ada-Tyr-DArg-Asp-Ala-Ile-Cpa-Thr-Ala-Arg-Tyr(Me)-Arg-Lys-Val-Leu-Abu-Gln-Leu-Ser-Ala-His-Orn-Leu-Leu-Gln-Asp-Ile-Nle-DArg-Har-NH2] (H-[dF][12Ado]Y[dR]DAI[Phe(4-Cl)]TARY(Me)RKVL[Abu]QLSAH[Orn]LLQDI[Nle][dR][hArg]-NH2)
- relative inhibitory potency in comparison to MIA-602, Urothelial RT4 [9]: 1.611
- relative inhibitory potency in comparison to MIA-602, Stomach KATOIII [1]: 1.271
- relative inhibitory potency in comparison to MIA-602, Pancreatic CFPAC-1 [3]: 1.617
- relative inhibitory potency in comparison to MIA-602, Pancreatic Panc-1 [4]: 1.306
- relative inhibitory potency in comparison to MIA-602, Lung IICC827 (HCC827 lung cancer cells): 1.423
- relative inhibitory potency in comparison to MIA-602, Urothelial J82 [7]: 4.841
- relative inhibitory potency in comparison to MIA-602, Stomach N87 [8]: 2.339
